Measured values published in article PMC10408569, “Recruitment of hexahydroquinoline as anticancer scaffold targeting inhibition of wild and mutants EGFR (EGFR^WT, EGFR^T790M, and EGFR^L858R)” (Journal of Enzyme Inhibition and Medicinal Chemistry, 2023).

Experiments:
CCRF-CEM = test: NCI-60 anticancer screening (SRB); type: cell-based; conditions: Homo sapiens; for inhibition at 10 µM: leukemia, one dose 10 μM, read-out: Growth Inhibition Percentage (GI %)
K-562 = test: NCI-60 anticancer screening (SRB); type: cell-based; conditions: Homo sapiens, K562; for inhibition at 10 µM: K-562, leukemia, one dose 10 μM, read-out: Growth Inhibition Percentage (GI %)
MOLT-4 = test: NCI-60 anticancer screening (SRB); type: cell-based; conditions: Homo sapiens; for inhibition at 10 µM: MOLT-4, leukemia, one dose 10 μM, read-out: Growth Inhibition Percentage (GI %)
SR = test: NCI-60 anticancer screening (SRB); type: cell-based; conditions: Homo sapiens; for inhibition at 10 µM: leukemia, one dose 10 μM, read-out: Growth Inhibition Percentage (GI %)
HOP-92 = test: NCI-60 anticancer screening (SRB); type: cell-based; conditions: Homo sapiens; for inhibition at 10 µM: HOP-92, NSC lung cancer, one dose 10 μM, read-out: Growth Inhibition Percentage (GI %)
NCI-H226 = test: NCI-60 anticancer screening (SRB); type: cell-based; conditions: Homo sapiens; for inhibition at 10 µM: NCI-H226, NSC lung cancer, one dose 10 μM, read-out: Growth Inhibition Percentage (GI %)
COLO 205 = test: NCI-60 anticancer screening (SRB); type: cell-based; conditions: Homo sapiens; for inhibition at 10 µM: COLO 205, colon cancer, one dose 10 μM, read-out: Growth Inhibition Percentage (GI %)
HCT-116 = test: NCI-60 anticancer screening (SRB); type: cell-based; conditions: Homo sapiens; for inhibition at 10 µM: HCT-116, colon cancer, one dose 10 μM, read-out: Growth Inhibition Percentage (GI %)
SW-620 = test: NCI-60 anticancer screening (SRB); type: cell-based; conditions: Homo sapiens; for inhibition at 10 µM: SW-620, colon cancer, one dose 10 μM, read-out: Growth Inhibition Percentage (GI %)
U251 = test: NCI-60 anticancer screening (SRB); type: cell-based; conditions: Homo sapiens, U-251; for inhibition at 10 µM: U251, CNS cancer, one dose 10 μM, read-out: Growth Inhibition Percentage (GI %)
LOX IMVI = test: NCI-60 anticancer screening (SRB); type: cell-based; conditions: Homo sapiens; for inhibition at 10 µM: melanoma, one dose 10 μM, read-out: Growth Inhibition Percentage (GI %)
MALME-3M = test: NCI-60 anticancer screening (SRB); type: cell-based; conditions: Homo sapiens; for inhibition at 10 µM: melanoma, one dose 10 μM, read-out: Growth Inhibition Percentage (GI %)
SK-MEL-2 = test: NCI-60 anticancer screening (SRB); type: cell-based; conditions: Homo sapiens; for inhibition at 10 µM: SK-MEL-2, melanoma, one dose 10 μM, read-out: Growth Inhibition Percentage (GI %)
UACC-257 = test: NCI-60 anticancer screening (SRB); type: cell-based; conditions: Homo sapiens; for inhibition at 10 µM: UACC-257, melanoma, one dose 10 μM, read-out: Growth Inhibition Percentage (GI %)
IGROV1 = test: NCI-60 anticancer screening (SRB); type: cell-based; conditions: Homo sapiens, IGROV-1; for inhibition at 10 µM: IGROV1, ovarian cancer, one dose 10 μM, read-out: Growth Inhibition Percentage (GI %)
OVCAR-3 = test: NCI-60 anticancer screening (SRB); type: cell-based; conditions: Homo sapiens; for inhibition at 10 µM: OVCAR-3, ovarian cancer, one dose 10 μM, read-out: Growth Inhibition Percentage (GI %)
OVCAR-4 = test: NCI-60 anticancer screening (SRB); type: cell-based; conditions: Homo sapiens; for inhibition at 10 µM: OVCAR-4, ovarian cancer, one dose 10 μM, read-out: Growth Inhibition Percentage (GI %)
OVCAR-5 = test: NCI-60 anticancer screening (SRB); type: cell-based; conditions: Homo sapiens; for inhibition at 10 µM: OVCAR-5, ovarian cancer, one dose 10 μM, read-out: Growth Inhibition Percentage (GI %)
OVCAR-8 = test: NCI-60 anticancer screening (SRB); type: cell-based; conditions: Homo sapiens; for inhibition at 10 µM: OVCAR-8, ovarian cancer, one dose 10 μM, read-out: Growth Inhibition Percentage (GI %)
SK-OV-3 = test: NCI-60 anticancer screening (SRB); type: cell-based; conditions: Homo sapiens; for inhibition at 10 µM: SK-OV-3, ovarian cancer, one dose 10 μM, read-out: Growth Inhibition Percentage (GI %)
A498 = test: NCI-60 anticancer screening (SRB); type: cell-based; conditions: Homo sapiens; for inhibition at 10 µM: A498, renal cancer, one dose 10 μM, read-out: Growth Inhibition Percentage (GI %)
ACHN = test: NCI-60 anticancer screening (SRB); type: cell-based; conditions: Homo sapiens; for inhibition at 10 µM: renal cancer, one dose 10 μM, read-out: Growth Inhibition Percentage (GI %)
UO-31 = test: NCI-60 anticancer screening (SRB); type: cell-based; conditions: Homo sapiens; for inhibition at 10 µM: UO-31, renal cancer, one dose 10 μM, read-out: Growth Inhibition Percentage (GI %)
PC-3 = test: NCI-60 anticancer screening (SRB); type: cell-based; conditions: Homo sapiens; for inhibition at 10 µM: PC-3, prostate cancer, one dose 10 μM, read-out: Growth Inhibition Percentage (GI %)
MCF7 = test: NCI-60 anticancer screening (SRB); type: cell-based; conditions: Homo sapiens; for inhibition at 10 µM: MCF7, breast cancer, one dose 10 μM, read-out: Growth Inhibition Percentage (GI %)
HS 578T = test: NCI-60 anticancer screening (SRB); type: cell-based; conditions: Homo sapiens; for inhibition at 10 µM: HS 578T, breast cancer, one dose 10 μM, read-out: Growth Inhibition Percentage (GI %)
BT-549 = test: NCI-60 anticancer screening (SRB); type: cell-based; conditions: Homo sapiens; for inhibition at 10 µM: BT-549, breast cancer, one dose 10 μM, read-out: Growth Inhibition Percentage (GI %)
MDA-MB-468 = test: NCI-60 anticancer screening (SRB); type: cell-based; conditions: Homo sapiens; for inhibition at 10 µM: MDA-MB-468, breast cancer, one dose 10 μM, read-out: Growth Inhibition Percentage (GI %)
[1] = Cytotoxic effects in vitro on normal lung cells; type: cell-based; conditions: IMR-90 normal lung fibroblast cells; human normal lung fibroblast (IMR-90); read-out: IC50, cytotoxicity towards human normal cells IMR-90
EGFR^T790M = EGFR^T790M (Homo sapiens, UniProt P00533, T790M); test: biochemical
Chain of EGFR^T790M (P00533 25-1210 T790M): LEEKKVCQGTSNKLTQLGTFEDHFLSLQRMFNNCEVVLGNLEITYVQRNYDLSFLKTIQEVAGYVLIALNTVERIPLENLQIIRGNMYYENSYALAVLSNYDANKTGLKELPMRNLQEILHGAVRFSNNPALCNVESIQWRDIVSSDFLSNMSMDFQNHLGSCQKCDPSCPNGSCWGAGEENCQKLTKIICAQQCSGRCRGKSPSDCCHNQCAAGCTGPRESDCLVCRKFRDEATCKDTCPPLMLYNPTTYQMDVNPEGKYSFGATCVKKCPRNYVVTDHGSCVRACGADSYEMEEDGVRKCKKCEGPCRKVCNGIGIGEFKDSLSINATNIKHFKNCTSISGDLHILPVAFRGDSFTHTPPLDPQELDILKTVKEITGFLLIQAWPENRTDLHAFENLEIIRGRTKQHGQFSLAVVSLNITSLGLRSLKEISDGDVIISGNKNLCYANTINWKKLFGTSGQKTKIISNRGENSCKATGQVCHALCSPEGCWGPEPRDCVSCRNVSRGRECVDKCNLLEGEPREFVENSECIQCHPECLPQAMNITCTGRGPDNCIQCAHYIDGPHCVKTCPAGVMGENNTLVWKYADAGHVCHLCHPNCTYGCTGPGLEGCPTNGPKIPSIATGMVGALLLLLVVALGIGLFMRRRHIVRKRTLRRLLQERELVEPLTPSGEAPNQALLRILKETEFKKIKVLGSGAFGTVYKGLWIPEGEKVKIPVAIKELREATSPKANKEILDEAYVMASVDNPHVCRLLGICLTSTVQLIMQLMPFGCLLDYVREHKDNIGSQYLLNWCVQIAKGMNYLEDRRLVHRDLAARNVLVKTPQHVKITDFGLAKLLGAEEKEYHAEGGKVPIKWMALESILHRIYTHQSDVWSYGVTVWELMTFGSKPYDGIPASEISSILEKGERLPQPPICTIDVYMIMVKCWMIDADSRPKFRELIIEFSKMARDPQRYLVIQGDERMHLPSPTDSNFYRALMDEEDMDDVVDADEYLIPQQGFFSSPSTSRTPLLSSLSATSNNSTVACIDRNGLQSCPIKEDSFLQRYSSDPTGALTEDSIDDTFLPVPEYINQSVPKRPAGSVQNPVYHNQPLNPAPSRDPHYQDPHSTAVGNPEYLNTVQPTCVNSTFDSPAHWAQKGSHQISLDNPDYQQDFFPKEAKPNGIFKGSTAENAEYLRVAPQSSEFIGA

EGFR^L858R = EGFR^L858R (Homo sapiens, UniProt P00533, L858R); test: biochemical
Chain of EGFR^L858R (P00533 25-1210 L858R): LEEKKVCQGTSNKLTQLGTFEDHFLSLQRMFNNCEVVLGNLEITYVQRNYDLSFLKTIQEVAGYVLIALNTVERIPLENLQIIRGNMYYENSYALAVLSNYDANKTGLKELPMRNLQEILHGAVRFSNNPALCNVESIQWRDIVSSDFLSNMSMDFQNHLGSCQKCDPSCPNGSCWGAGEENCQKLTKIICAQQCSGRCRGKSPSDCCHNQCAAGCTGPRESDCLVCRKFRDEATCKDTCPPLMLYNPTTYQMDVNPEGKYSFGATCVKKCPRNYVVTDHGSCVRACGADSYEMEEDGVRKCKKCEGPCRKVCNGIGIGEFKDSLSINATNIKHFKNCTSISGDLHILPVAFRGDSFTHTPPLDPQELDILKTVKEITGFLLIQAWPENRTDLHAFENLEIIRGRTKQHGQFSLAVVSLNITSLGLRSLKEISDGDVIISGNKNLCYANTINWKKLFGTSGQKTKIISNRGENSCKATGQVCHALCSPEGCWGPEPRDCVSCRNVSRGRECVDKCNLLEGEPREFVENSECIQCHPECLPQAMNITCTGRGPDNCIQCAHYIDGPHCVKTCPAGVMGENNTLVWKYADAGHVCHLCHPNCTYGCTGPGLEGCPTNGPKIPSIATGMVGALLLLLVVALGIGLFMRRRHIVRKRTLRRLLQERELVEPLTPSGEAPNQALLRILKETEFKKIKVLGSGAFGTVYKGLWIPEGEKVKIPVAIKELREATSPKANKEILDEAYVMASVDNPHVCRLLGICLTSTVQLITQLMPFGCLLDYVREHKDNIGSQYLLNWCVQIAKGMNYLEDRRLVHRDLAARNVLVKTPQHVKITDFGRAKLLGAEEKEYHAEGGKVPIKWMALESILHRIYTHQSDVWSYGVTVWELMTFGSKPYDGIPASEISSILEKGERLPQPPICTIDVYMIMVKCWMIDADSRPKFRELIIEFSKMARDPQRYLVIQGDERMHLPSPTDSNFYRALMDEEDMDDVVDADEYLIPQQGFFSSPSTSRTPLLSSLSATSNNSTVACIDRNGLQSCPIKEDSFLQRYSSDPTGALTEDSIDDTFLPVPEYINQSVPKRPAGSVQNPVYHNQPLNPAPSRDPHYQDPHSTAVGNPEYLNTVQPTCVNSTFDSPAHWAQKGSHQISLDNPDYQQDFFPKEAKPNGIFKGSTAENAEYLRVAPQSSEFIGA

EGFR^WT = EGFR^WT (Homo sapiens, UniProt P00533); test: EGFR kinase inhibitory assay (HTRF)
Chain of EGFR^WT (P00533 25-1210): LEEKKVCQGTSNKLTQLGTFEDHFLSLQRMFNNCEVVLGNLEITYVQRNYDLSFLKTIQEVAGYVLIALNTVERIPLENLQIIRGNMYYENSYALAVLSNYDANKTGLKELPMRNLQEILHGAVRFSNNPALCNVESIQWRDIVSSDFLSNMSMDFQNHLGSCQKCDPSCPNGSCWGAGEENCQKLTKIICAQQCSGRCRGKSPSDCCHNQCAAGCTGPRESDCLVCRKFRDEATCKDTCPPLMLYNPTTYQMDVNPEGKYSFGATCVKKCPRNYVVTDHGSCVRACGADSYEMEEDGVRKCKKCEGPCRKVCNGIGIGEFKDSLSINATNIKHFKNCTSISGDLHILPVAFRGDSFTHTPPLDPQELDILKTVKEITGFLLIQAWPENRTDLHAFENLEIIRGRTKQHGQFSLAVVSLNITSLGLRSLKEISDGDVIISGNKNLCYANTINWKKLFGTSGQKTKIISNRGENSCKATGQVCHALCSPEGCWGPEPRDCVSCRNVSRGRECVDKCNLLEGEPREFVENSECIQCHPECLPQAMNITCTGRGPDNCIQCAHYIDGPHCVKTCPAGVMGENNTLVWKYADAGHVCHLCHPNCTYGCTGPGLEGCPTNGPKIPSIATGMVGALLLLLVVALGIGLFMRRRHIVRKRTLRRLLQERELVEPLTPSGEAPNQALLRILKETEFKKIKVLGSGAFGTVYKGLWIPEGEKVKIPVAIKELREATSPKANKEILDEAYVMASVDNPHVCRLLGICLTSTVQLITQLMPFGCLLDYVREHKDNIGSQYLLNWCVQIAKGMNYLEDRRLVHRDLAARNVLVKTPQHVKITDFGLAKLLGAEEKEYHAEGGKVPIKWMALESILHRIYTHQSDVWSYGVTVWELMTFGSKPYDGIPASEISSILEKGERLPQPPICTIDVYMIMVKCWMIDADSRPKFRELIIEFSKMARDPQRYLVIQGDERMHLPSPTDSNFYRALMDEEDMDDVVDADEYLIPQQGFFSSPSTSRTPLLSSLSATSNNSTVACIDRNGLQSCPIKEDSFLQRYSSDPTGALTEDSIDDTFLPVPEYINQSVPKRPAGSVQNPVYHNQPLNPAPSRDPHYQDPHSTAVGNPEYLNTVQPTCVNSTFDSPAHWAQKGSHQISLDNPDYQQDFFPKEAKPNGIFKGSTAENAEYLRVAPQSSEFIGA

CCOC(=O)C1=C(N)N(c2ccc(Cl)cc2)C2=C(C(=O)CC(C)(C)C2)C1c1ccc(Cl)cc1Cl (racemic) [10d, (±)-Ethyl 2-amino-1–(4-chorophenyl)-4–(2,4-dichlorophenyl)-7,7-dimethyl-5-oxo-1-phenyl-1,4,5,6,7,8-hexahydroquinoline-3-carboxylate]
inhibition at 10 µM (CCRF-CEM): 64% | inhibition at 10 µM (K-562): 79% | inhibition at 10 µM (MOLT-4): 71% | inhibition at 10 µM (SR): 75% | inhibition at 10 µM (HOP-92): 55% | inhibition at 10 µM (NCI-H226): 62% | inhibition at 10 µM (COLO 205): 53% | inhibition at 10 µM (HCT-116): 66% | inhibition at 10 µM (SW-620): < 10% | inhibition at 10 µM (U251): 58% | inhibition at 10 µM (LOX IMVI): < 10% | inhibition at 10 µM (MALME-3M): 32% | inhibition at 10 µM (SK-MEL-2): 37% | inhibition at 10 µM (UACC-257): 43% | inhibition at 10 µM (IGROV1): 16% | inhibition at 10 µM (OVCAR-3): 49% | inhibition at 10 µM (OVCAR-4): 56% | inhibition at 10 µM (OVCAR-5): 17% | inhibition at 10 µM (OVCAR-8): 29% | inhibition at 10 µM (SK-OV-3): 46% | inhibition at 10 µM (A498): 23% | inhibition at 10 µM (ACHN): 50% | inhibition at 10 µM (UO-31): 65% | inhibition at 10 µM (PC-3): 79% | inhibition at 10 µM (MCF7): 70% | inhibition at 10 µM (HS 578T): < 10% | inhibition at 10 µM (BT-549): 24% | inhibition at 10 µM (MDA-MB-468): 82% | IC50 [1]: 55.5 ± 2.57 µM | IC50 (EGFR^T790M): 0.28 ± 0.001 µM | IC50 (EGFR^L858R): 0.051 ± 0.001 µM | IC50 (EGFR^WT): 0.097 ± 0.005 µM

CCOC(=O)C1=C(N)N(c2ccccc2)C2=C(C(=O)CC(C)(C)C2)C1c1ccc(Cl)cc1Cl (racemic) [10c, (±)-Ethyl 2-amino-4–(2,4-dichlorophenyl)-7,7-dimethyl-5-oxo-1-phenyl-1,4,5,6,7,8-hexahydroquinoline-3-carboxylate]
GI50 (CCRF-CEM; five doses 0.01-100 µM, 48 h): 3.1 µM | inhibition at 10 µM (CCRF-CEM): 80% | inhibition at 10 µM (K-562): 87% | GI50 (K-562; K-562, five doses 0.01-100 µM, 48 h): 7.23 µM | inhibition at 10 µM (MOLT-4): 93% | GI50 (MOLT-4; MOLT-4, five doses 0.01-100 µM, 48 h): 9.56 µM | GI50 (SR; five doses 0.01-100 µM, 48 h): 1.47 µM | inhibition at 10 µM (SR): 90% | inhibition at 10 µM (HOP-92): 100% | GI50 (HOP-92; HOP-92, five doses 0.01-100 µM, 48 h): 3.89 µM | inhibition at 10 µM (NCI-H226): 76% | GI50 (NCI-H226; NCI-H226, five doses 0.01-100 µM, 48 h): 2.34 µM | inhibition at 10 µM (COLO 205): 91% | GI50 (COLO 205; COLO-205, five doses 0.01-100 µM, 48 h): 2.06 µM | inhibition at 10 µM (HCT-116): 86% | GI50 (HCT-116; HCT-116, five doses 0.01-100 µM, 48 h): 7.89 µM | inhibition at 10 µM (SW-620): < 10% | GI50 (SW-620; SW-620, five doses 0.01-100 µM, 48 h): 2.9 µM | inhibition at 10 µM (U251): 72% | GI50 (U251; U251, five doses 0.01-100 µM, 48 h): 2.46 µM | GI50 (LOX IMVI; five doses 0.01-100 µM, 48 h): 3.24 µM | inhibition at 10 µM (LOX IMVI): < 10% | GI50 (MALME-3M; five doses 0.01-100 µM, 48 h): 2.93 µM | inhibition at 10 µM (MALME-3M): 72% | inhibition at 10 µM (SK-MEL-2): 112% | GI50 (SK-MEL-2; SK-MEL-2, five doses 0.01-100 µM, 48 h): 1.7 µM | inhibition at 10 µM (UACC-257): 65% | GI50 (UACC-257; UACC-257, five doses 0.01-100 µM, 48 h): 2.88 µM | inhibition at 10 µM (IGROV1): 41% | GI50 (IGROV1; IGROV1, five doses 0.01-100 µM, 48 h): 7.97 µM | inhibition at 10 µM (OVCAR-3): 67% | GI50 (OVCAR-3; OVCAR-3, five doses 0.01-100 µM, 48 h): 2.62 µM | inhibition at 10 µM (OVCAR-4): 75% | GI50 (OVCAR-4; OVCAR-4, five doses 0.01-100 µM, 48 h): 2.83 µM | inhibition at 10 µM (OVCAR-5): 43% | GI50 (OVCAR-5; OVCAR-5, five doses 0.01-100 µM, 48 h): 7.26 µM | inhibition at 10 µM (OVCAR-8): 63% | GI50 (OVCAR-8; OVCAR-8, five doses 0.01-100 µM, 48 h): 3.72 µM | inhibition at 10 µM (SK-OV-3): 66% | GI50 (SK-OV-3; SK-OV-3, five doses 0.01-100 µM, 48 h): 3.35 µM | inhibition at 10 µM (A498): 53% | GI50 (A498; A498, five doses 0.01-100 µM, 48 h): 4.54 µM | GI50 (ACHN; five doses 0.01-100 µM, 48 h): 1.83 µM | inhibition at 10 µM (ACHN): 83% | inhibition at 10 µM (UO-31): 83% | GI50 (UO-31; UO-31, five doses 0.01-100 µM, 48 h): 1.15 µM | inhibition at 10 µM (PC-3): 90% | GI50 (PC-3; PC-3, five doses 0.01-100 µM, 48 h): 4.14 µM | inhibition at 10 µM (MCF7): 91% | GI50 (MCF7; MCF7, five doses 0.01-100 µM, 48 h): 1.77 µM | inhibition at 10 µM (HS 578T): < 10% | GI50 (HS 578T; HS 578 T, five doses 0.01-100 µM, 48 h): 7.68 µM | inhibition at 10 µM (BT-549): 67% | GI50 (BT-549; BT-549, five doses 0.01-100 µM, 48 h): 4.58 µM | inhibition at 10 µM (MDA-MB-468): 96% | GI50 (MDA-MB-468; MDA-MB-468, five doses 0.01-100 µM, 48 h): 6.83 µM | IC50 [1]: 62.2 ± 3.14 µM | IC50 (EGFR^T790M): 0.586 ± 0.003 µM | IC50 (EGFR^L858R): 0.623 ± 0.005 µM | IC50 (EGFR^WT): 0.148 ± 0.04 µM
